Reference: the supplement of paper PMC10307832

Columns and labels:
Assay in all cases: relative viability (nuclei count vs DMSO), 5 days (fraction); higher = more cells survive
[1] = compound: Nc1ccn([C@@H]2O[C@H](CO)[C@@H](O)C2(F)F)c(=O)n1 [Gemcitabine] + COc1cccc2cc(-c3nc([C@H]4CC[C@H](C(=O)O)CC4)n4ncnc(N)c34)[nH]c12 [OSI-027] (partner 0.5 µM)
Summary of the method: (§1)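 Relative viability is defined as nuclei in treated wells over nuclei in vehicle wells. Duplicate plates were run and medians reported. Lung cancer cell lines in 1536-well plates were dosed by pin tool one day after seeding, with one drug or with a fixed anchor-drug dose plus five library-drug doses (not always all listed) in √10 steps, and nuclei were counted after 5 days.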

[2] = compound: Nc1ccn([C@@H]2O[C@H](CO)[C@@H](O)C2(F)F)c(=O)n1 [Gemcitabine] + CC(=O)c1c(C)c2cnc(Nc3ccc(N4CCNCC4)cn3)nc2n(C2CCCC2)c1=O [Palbociclib] (partner 0.5 µM)
Summary of the method: as §1

[3] = compound: Nc1ccn([C@@H]2O[C@H](CO)[C@@H](O)C2(F)F)c(=O)n1 [Gemcitabine] + CCNC(=O)c1noc(-c2cc(C(C)C)c(O)cc2O)c1-c1ccc(CN2CCOCC2)cc1 [Luminespib] (partner 0.01 µM)
Summary of the method: as §1

[4] = compound: Nc1ccn([C@@H]2O[C@H](CO)[C@@H](O)C2(F)F)c(=O)n1 [Gemcitabine] + CS(=O)(=O)N1CCN(Cc2cc3nc(-c4cccc5[nH]ncc45)nc(N4CCOCC4)c3s2)CC1 [Pictilisib] (partner 1 µM)
Summary of the method: as §1

Row | Cell Line | relative viability ([1]; first compound 0.001 µM) | relative viability ([1]; first compound 0.003162 µM) | relative viability ([1]; first compound 0.01 µM) | relative viability ([1]; first compound 0.03162 µM) | relative viability ([1]; first compound 0.1 µM) | relative viability ([2]; first compound 0.001 µM) | relative viability ([2]; first compound 0.003162 µM) | relative viability ([2]; first compound 0.01 µM) | relative viability ([2]; first compound 0.03162 µM) | relative viability ([2]; first compound 0.1 µM) | relative viability ([3]; first compound 0.001 µM) | relative viability ([3]; first compound 0.003162 µM) | relative viability ([3]; first compound 0.01 µM) | relative viability ([3]; first compound 0.03162 µM) | relative viability ([3]; first compound 0.1 µM) | relative viability ([4]; first compound 0.001 µM) | relative viability ([4]; first compound 0.003162 µM) | relative viability ([4]; first compound 0.01 µM) | relative viability ([4]; first compound 0.03162 µM) | relative viability ([4]; first compound 0.1 µM)
1 | LCLC-97TM1 | 0.468 | 0.524 | 0.138 | 0.121 | 0.116 | 0.17 | 0.135 | 0.134 | 0.0816 | 0.0933 | 0.813 | 0.86 | 0.334 | 0.202 | 0.129 | 0.141 | 0.167 | 0.126 | 0.11 | 0.12
2 | HARA | 0.734 | 0.68 | 0.388 | 0.175 | 0.0508 | 0.234 | 0.283 | 0.219 | 0.179 | 0.139 | 0.683 | 0.847 | 0.719 | 0.0504 | 0.0409 | 0.299 | 0.483 | 0.532 | 0.261 | 0.0888
3 | HCC-78 | 0.325 | 0.312 | 0.263 | 0.211 | 0.229 | 0.495 | 0.446 | 0.388 | 0.302 | 0.294 |  |  |  |  |  | 0.198 | 0.247 | 0.201 | 0.148 | 0.132
4 | NCI-H1666 | 0.87 | 0.821 | 0.752 | 0.5 | 0.479 | 0.603 | 0.664 | 0.651 | 0.596 | 0.578 | 1.01 | 0.937 | 0.957 | 0.595 | 0.393 | 0.326 | 0.471 | 0.306 | 0.284 | 0.274
5 | NCI-H2347 | 0.434 | 0.431 | 0.307 | 0.242 | 0.24 | 0.412 | 0.432 | 0.404 | 0.364 | 0.325 | 0.412 | 0.513 | 0.302 | 0.448 | 0.282 | 0.554 | 0.655 | 0.648 | 0.385 | 0.348
6 | NCI-H838 | 0.367 | 0.441 | 0.3 | 0.245 | 0.124 | 0.228 | 0.244 | 0.237 | 0.199 | 0.125 | 0.286 | 0.289 | 0.241 | 0.292 | 0.18 | 0.476 | 0.501 | 0.468 | 0.346 | 0.141
7 | NCI-H2023 | 0.417 | 0.342 | 0.128 | 0.0817 | 0.0589 | 0.354 | 0.39 | 0.218 | 0.138 | 0.0722 | 0.96 | 0.755 | 0.623 | 0.141 | 0.0596 | 0.248 | 0.266 | 0.143 | 0.106 | 0.0734
8 | 201T | 0.653 | 0.747 | 0.122 | 0.146 | 0.114 | 0.341 | 0.363 | 0.317 | 0.359 | 0.323 | 1.04 | 1.03 | 1.04 | 0.681 | 0.278 | 0.692 | 0.71 | 0.686 | 0.496 | 0.321
9 | NCI-H1915 | 0.714 | 0.63 | 0.545 | 0.479 | 0.241 | 0.522 | 0.532 | 0.508 | 0.425 | 0.22 | 0.826 | 0.759 | 0.693 | 0.669 | 0.356 | 1.02 | 0.949 | 0.909 | 0.857 | 0.229
10 | HCC-366 | 0.899 | 1.23 | 0.478 | 0.0351 | 0.0249 | 0.402 | 0.383 | 0.205 | 0.0402 | 0.026 |  |  |  |  |  | 0.188 | 0.136 | 0.0591 | 0.0347 | 0.0366
11 | EBC-1 |  |  |  |  |  |  |  |  |  |  |  |  |  |  |  | 0.355 | 0.237 | 0.15 | 0.151 | 0.143
12 | SW 900 | 0.526 | 0.241 | 0.13 | 0.0871 | 0.0793 | 0.551 | 0.562 | 0.286 | 0.176 | 0.186 | 0.147 | 0.187 | 0.164 | 0.161 | 0.148 |  |  |  |  | 
13 | NCI-H522 | 0.653 | 0.463 | 0.384 | 1.12 | 0.393 | 0.885 | 0.729 | 0.528 | 0.394 | 0.364 | 1.14 | 1.08 | 0.727 | 0.392 | 0.368 |  |  |  |  | 
14 | NCI-H596 | 0.659 | 0.604 | 0.392 | 0.232 | 0.193 |  |  |  |  |  | 1.23 | 0.949 | 0.323 | 0.31 | 0.305 | 0.369 | 0.436 | 0.438 | 0.335 | 0.293
15 | NCI-H1563 | 0.761 | 0.726 | 0.631 | 0.5 | 0.545 |  |  |  |  |  | 0.522 | 0.549 | 0.585 | 0.483 | 0.441 | 0.599 | 0.669 | 0.652 | 0.634 | 0.506
16 | NCI-H1299 |  |  |  |  |  |  |  |  |  |  |  |  |  |  |  | 0.637 | 0.728 | 0.709 | 0.883 | 0.655
17 | NCI-H2342 | 0.652 | 0.629 | 0.563 | 0.392 | 0.381 | 0.484 | 0.527 | 0.46 | 0.433 | 0.393 | 0.591 | 0.61 | 0.543 | 0.376 | 0.331 |  |  |  |  | 
18 | A549 |  |  |  |  |  |  |  |  |  |  |  |  |  |  |  | 0.74 | 0.367 | 0.0384 | 0.0238 | 0.0155
19 | IA-LM |  |  |  |  |  |  |  |  |  |  |  |  |  |  |  | 0.336 | 0.332 | 0.219 | 0.1 | 0.0556
20 | Calu-6 |  |  |  |  |  |  |  |  |  |  |  |  |  |  |  | 0.994 | 0.705 | 0.223 | 0.162 | 0.108
